Read-outs that look alike come from different tables or passages of the source.
Tested on: Passive cutaneous anaphylaxis
Test: Passive cutaneous anaphylaxis (PCA) in rats
Type: in vivo
Conditions: dosed immediately prior to i.v. antigen/Evans blue challenge, blueing scored after 30 minutes; for ED50: Rattus norvegicus, 0.5 h
Description: Cutaneous anaphylaxis can be induced in rats by intradermal (ID) sensitization with antiserum followed three days later by systemic challenge with antigen. Evans blue dye injected with the antigen is used as a marker to assess the severity of the local response. Anti-allergic drugs inhibit this reaction. […] Brown: Pergamon Press:-male rats weighing 180-220 grams are used in groups of seven.
1. Wash 120 grams of Al(OH)3 gel in 140 ml of saline (use of a macerater facilitates mixing).
2. Centrifuge at 3,000 r.p.m. for about 10 minutes.
3. Resuspend the precipitate with 300 ml of albumen egg powder (1.3 mg/ml) in saline and allow to stand for 30 minutes.
4. Centrifuge at 3,000 r.p.m. for 10 minutes.
5. Weigh the wet precipitate and to each gram weight add 1 ml of saline. Store in refrigerator (Quantity sufficient for 60 rats for a 3 day sensitization program).
1 ml of the alum precipitated ovalbumen was injected subcutaneously into rats weighing 180-200 grams on days 0,2,4. The rats were bled on day 14 either by cardiac puncture of via the dorsal abdominal aorta. Equal quantities of serum from each animal were pooled and thoroughly mixed and 2 ml aliquots were stored at -20° C. in plastic tubes.
(A) SENSITIZATION: The rats were anaesthetized with Nembutal (40-60 mg/kg i.p.) and were then sensitized by four ID injections (0.1 ml each) on their shaved backs. The animals were then left for a period of three days to develop sensitization.
The injections were speeded up by using an automatic 1 ml self-filling glass syringe. The "challenged" rats were killed after 30 minutes, (usually pithed) and their skin on the dorsal surface was removed. The degree and area of blueing, proportional to the anaphylactic reaction was assessed on a four point scoring system.
1. Total scores for sites 1,2,3 and 4=X
2. Mean value of X for each group=X
3. X t=X for test group; X c=X for control group [formula]

[1] = intravenous, read-out: ED 50 (dose of drug giving 50% inhibition), intravenously

Molecule	ED 50 (dose of drug giving 50% inhibition), intravenously (intravenous) [mg/kg]	ED 50 (dose of drug giving 50% inhibition), orally (oral) [mg/kg]	ED50 [1] [mg/kg]	ED50 (oral, read-out: ED 50 (dose of drug giving 50% inhibition), orally) [mg/kg]
7- and 8-chloro-imidazo-[1,2-a]-quinoxaline-2-carboxylic acid [Example 4]	0.12	0.71		
O=C(O)c1cn2c(cnc3ccccc32)n1 [Example 1, Imidazo-[1,2-a]-quinoxaline-2-carboxylic acid]			0.073	0.73
O=C(O)c1cn2c(cnc3cc(Cl)c(Cl)cc32)n1 [Example 3, 7,8-dichloro-imidazo-[1,2-a]-quinoxaline-2-carboxylic acid]			0.2	
CCOc1nc2ccccc2n2cc(C(=O)O)nc12 [Example 5, 4-ethoxy-imidazo-[1,2-a]-quinoxaline-2-carboxylic acid]			0.83	
NC(=O)c1nc2ccccc2n2cc(C(=O)O)nc12 [Example 6, 4-carbamoyl-imidazo-[1,2-a]-quinoxaline-2-carboxylic acid]			3.13	
